Results reported in publication PMC9950205, “Efficacy, safety, and pharmacokinetics of teduglutide in adult Japanese patients with short bowel syndrome and intestinal failure: two phase III studies with an extension” (Surgery Today, 2022).

Test system: adult Japanese patients with SBS-IF
Assay: Safety: treatment-emergent adverse events (TEAEs, TESAEs)
Type: in vivo
From the text: Safety analyses included the monitoring of adverse events (AEs), body weight, BMI, vital signs, 12-lead electrocardiogram (ECG), serum biochemistry, hematology, and presence of antibodies to teduglutide. AEs were coded using the Medical Dictionary for Regulatory Activities versions 17.1 (TED-C14-004) and 21.0 (SHP633-306 and SHP633-307). Specifically, AEs were treatment-emergent AEs (TEAEs), defined as any unfavorable and unintended sign (including any abnormal laboratory finding), symptom, or disease that occurred during treatment with teduglutide, whether or not the event was considered to be related to the study drug by the clinical study investigator. AEs were also categorized as mild, moderate, or severe. […] AEs were considered related to treatment with teduglutide, or its administration, based on the investigator's medical judgment.

[1] = > 24 weeks (SHP633-307 and TED-C14-004), 0.05 mg/kg/day

Compound: CC[C@H](C)[C@H](NC(=O)[C@H](Cc1ccccc1)NC(=O)[C@H](CC(=O)O)NC(=O)[C@H](CCCNC(=N)N)NC(=O)[C@H](C)NC(=O)[C@H](C)NC(=O)[C@H](CC(C)C)NC(=O)[C@H](CC(N)=O)NC(=O)[C@H](CC(=O)O)NC(=O)[C@H](CC(C)C)NC(=O)[C@@H](NC(=O)[C@@H](NC(=O)[C@H](CC(N)=O)NC(=O)[C@H](CCSC)NC(=O)[C@H](CCC(=O)O)NC(=O)[C@H](CC(=O)O)NC(=O)[C@H](CO)NC(=O)[C@H](Cc1ccccc1)NC(=O)[C@H](CO)NC(=O)CNC(=O)[C@H](CC(=O)O)NC(=O)CNC(=O)[C@@H](N)Cc1c[nH]cn1)[C@@H](C)O)[C@@H](C)CC)C(=O)N[C@@H](CC(N)=O)C(=O)N[C@@H](Cc1c[nH]c2ccccc12)C(=O)N[C@@H](CC(C)C)C(=O)N[C@H](C(=O)N[C@@H](CCC(N)=O)C(=O)N[C@H](C(=O)N[C@@H](CCCCN)C(=O)N[C@H](C(=O)N[C@H](C(=O)N[C@@H](CC(=O)O)C(=O)O)[C@@H](C)O)[C@@H](C)CC)[C@@H](C)O)[C@@H](C)CC [teduglutide]
- Abdominal distension: Events [1]: 2 n
- Abdominal distension: Patients [1]: 2 (13.3) n (%)
- Abdominal pain: Events [1]: 1 n
- Abdominal pain: Patients [1]: 1 (6.7) n (%)
- Anal abscess: Events [1]: 3 n
- Anal abscess: Patients [1]: 3 (20.0) n (%)
- Anemia: Events [1]: 0 n
- Anemia: Patients [1]: 0 n (%)
- Any TEAE: Events [1]: 199 n
- Any TEAE: Patients [1]: 11 (73.3) n (%)
- Arthralgia: Events [1]: 5 n
- Arthralgia: Patients [1]: 5 (33.3) n (%)
- Back pain: Events [1]: 1 n
- Back pain: Patients [1]: 1 (6.7) n (%)
- Blood and lymphatic system disorders: Events [1]: 0 n
- Blood and lymphatic system disorders: Patients [1]: 0 n (%)
- Catheter site infection: Events [1]: 1 n
- Catheter site infection: Patients [1]: 1 (6.7) n (%)
- Catheter site pain: Events [1]: 4 n
- Catheter site pain: Patients [1]: 2 (13.3) n (%)
- Dehydration: Events [1]: 2 n
- Dehydration: Patients [1]: 2 (13.3) n (%)
- Dermatitis contact: Events [1]: 4 n
- Dermatitis contact: Patients [1]: 4 (26.7) n (%)
- Device occlusion (central venous catheter for PS): Events [1]: 3 n
- Device occlusion (central venous catheter for PS): Patients [1]: 2 (13.3) n (%)
- Device-related infection (central venous catheter for PS): Events [1]: 24 n
- Device-related infection (central venous catheter for PS): Patients [1]: 7 (46.7) n (%)
- Diarrhea: Events [1]: 4 n
- Diarrhea: Patients [1]: 3 (20.0) n (%)
- Dry skin: Events [1]: 1 n
- Dry skin: Patients [1]: 1 (6.7) n (%)
- Enteritis: Events [1]: 1 n
- Enteritis: Patients [1]: 1 (6.7) n (%)
- Enterocolitis: Events [1]: 2 n
- Enterocolitis: Patients [1]: 2 (13.3) n (%)
- Eye disorder: Events [1]: 5 n
- Eye disorder: Patients [1]: 1 (6.7) n (%)
- Gastrointestinal disorders: Events [1]: 33 n
- Gastrointestinal disorders: Patients [1]: 8 (53.3) n (%)
- General disorders and administration site conditions: Events [1]: 16 n
- General disorders and administration site conditions: Patients [1]: 5 (33.3) n (%)
- Headache: Events [1]: 11 n
- Headache: Patients [1]: 5 (33.3) n (%)
- Hematuria: Events [1]: 2 n
- Hematuria: Patients [1]: 2 (13.3) n (%)
- Hemorrhage subcutaneous: Events [1]: 2 n
- Hemorrhage subcutaneous: Patients [1]: 2 (13.3) n (%)
- Hepatobiliary disorders: Events [1]: 2 n
- Hepatobiliary disorders: Patients [1]: 2 (13.3) n (%)
- Hypersensitivity: Events [1]: 2 n
- Hypersensitivity: Patients [1]: 2 (13.3) n (%)
- Hypozincemia: Events [1]: 1 n
- Hypozincemia: Patients [1]: 1 (6.7) n (%)
- Immune system disorders: Events [1]: 2 n
- Immune system disorders: Patients [1]: 2 (13.3) n (%)
- Infections and infestations: Events [1]: 62 n
- Infections and infestations: Patients [1]: 10 (66.7) n (%)
- Influenza: Events [1]: 18 n
- Influenza: Patients [1]: 5 (33.3) n (%)
- Injection site reaction: Events [1]: 0 n
- Injection site reaction: Patients [1]: 0 n (%)
- Injury, poisoning, and procedural complications: Events [1]: 1 n
- Injury, poisoning, and procedural complications: Patients [1]: 1 (6.7) n (%)
- Insomnia: Events [1]: 2 n
- Insomnia: Patients [1]: 2 (13.3) n (%)
- Investigations: Events [1]: 5 n
- Investigations: Patients [1]: 2 (13.3) n (%)
- Metabolism and nutrition disorders: Events [1]: 7 n
- Metabolism and nutrition disorders: Patients [1]: 5 (33.3) n (%)
- Musculoskeletal and connective tissue disorders: Events [1]: 10 n
- Musculoskeletal and connective tissue disorders: Patients [1]: 6 (40.0) n (%)
- Nasopharyngitis: Events [1]: 18 n
- Nasopharyngitis: Patients [1]: 5 (33.3) n (%)
- Nausea: Events [1]: 7 n
- Nausea: Patients [1]: 3 (20.0) n (%)
- Nervous system disorders: Events [1]: 19 n
- Nervous system disorders: Patients [1]: 7 (46.7) n (%)
- Oropharyngeal pain: Events [1]: 3 n
- Oropharyngeal pain: Patients [1]: 3 (20.0) n (%)
- Pruritus: Events [1]: 1 n
- Pruritus: Patients [1]: 1 (6.7) n (%)
- Psychiatric disorders: Events [1]: 4 n
- Psychiatric disorders: Patients [1]: 3 (20.0) n (%)
- Pyrexia: Events [1]: 5 n
- Pyrexia: Patients [1]: 4 (26.7) n (%)
- Renal and urinary disorders: Events [1]: 4 n
- Renal and urinary disorders: Patients [1]: 3 (20.0) n (%)
- Respiratory, thoracic, and mediastinal disorders: Events [1]: 8 n
- Respiratory, thoracic, and mediastinal disorders: Patients [1]: 3 (20.0) n (%)
- Skin and subcutaneous tissue disorders: Events [1]: 13 n
- Skin and subcutaneous tissue disorders: Patients [1]: 7 (46.7) n (%)
- Somnolence: Events [1]: 3 n
- Somnolence: Patients [1]: 3 (20.0) n (%)
- Stomatitis: Events [1]: 3 n
- Stomatitis: Patients [1]: 3 (20.0) n (%)
- Upper respiratory tract inflammation: Events [1]: 1 n
- Upper respiratory tract inflammation: Patients [1]: 1 (6.7) n (%)
- Vascular disorders: Events [1]: 4 n
- Vascular disorders: Patients [1]: 3 (20.0) n (%)
- Vascular pain: Events [1]: 3 n
- Vascular pain: Patients [1]: 2 (13.3) n (%)
- Vomiting: Events [1]: 1 n
- Vomiting: Patients [1]: 1 (6.7) n (%)
- TESAEs considered to be related to teduglutide (SHP633-306 or SHP633-307): No TESAEs
- Deaths during the study (TED-C14-004, one patient, acute hepatic and renal failure 52 days after teduglutide discontinuation): only death
- Abdominal distension: Events (Total, 0.05 mg/kg/day): 6 n
- Abdominal distension: Patients (Total, 0.05 mg/kg/day): 6 (33.3) n (%)
- Abdominal pain: Events (Total, 0.05 mg/kg/day): 6 n
- Abdominal pain: Patients (Total, 0.05 mg/kg/day): 5 (27.8) n (%)
- Anal abscess: Events (Total, 0.05 mg/kg/day): 3 n
- Anal abscess: Patients (Total, 0.05 mg/kg/day): 3 (16.7) n (%)
- Anemia: Events (Total, 0.05 mg/kg/day): 2 n
- Anemia: Patients (Total, 0.05 mg/kg/day): 2 (11.1) n (%)
- Any TEAE: Events (Total, 0.05 mg/kg/day): 320 n
- Any TEAE: Patients (Total, 0.05 mg/kg/day): 18 (100.0) n (%)
- Arthralgia: Events (Total, 0.05 mg/kg/day): 5 n
- Arthralgia: Patients (Total, 0.05 mg/kg/day): 5 (27.8) n (%)
- Back pain: Events (Total, 0.05 mg/kg/day): 2 n
- Back pain: Patients (Total, 0.05 mg/kg/day): 2 (11.1) n (%)
- Blood and lymphatic system disorders: Events (Total, 0.05 mg/kg/day): 4 n
- Blood and lymphatic system disorders: Patients (Total, 0.05 mg/kg/day): 3 (16.7) n (%)
- Catheter site infection: Events (Total, 0.05 mg/kg/day): 2 n
- Catheter site infection: Patients (Total, 0.05 mg/kg/day): 2 (11.1) n (%)
- Catheter site pain: Events (Total, 0.05 mg/kg/day): 5 n
- Catheter site pain: Patients (Total, 0.05 mg/kg/day): 2 (11.1) n (%)
- Dehydration: Events (Total, 0.05 mg/kg/day): 4 n
- Dehydration: Patients (Total, 0.05 mg/kg/day): 2 (11.1) n (%)
- Dermatitis contact: Events (Total, 0.05 mg/kg/day): 4 n
- Dermatitis contact: Patients (Total, 0.05 mg/kg/day): 4 (22.2) n (%)
- Device occlusion (central venous catheter for PS): Events (Total, 0.05 mg/kg/day): 6 n
- Device occlusion (central venous catheter for PS): Patients (Total, 0.05 mg/kg/day): 3 (16.7) n (%)
- Device-related infection (central venous catheter for PS): Events (Total, 0.05 mg/kg/day): 33 n
- Device-related infection (central venous catheter for PS): Patients (Total, 0.05 mg/kg/day): 10 (55.6) n (%)
- Diarrhea: Events (Total, 0.05 mg/kg/day): 5 n
- Diarrhea: Patients (Total, 0.05 mg/kg/day): 4 (22.2) n (%)
- Dry skin: Events (Total, 0.05 mg/kg/day): 2 n
- Dry skin: Patients (Total, 0.05 mg/kg/day): 2 (11.1) n (%)
- Enteritis: Events (Total, 0.05 mg/kg/day): 2 n
- Enteritis: Patients (Total, 0.05 mg/kg/day): 2 (11.1) n (%)
- Enterocolitis: Events (Total, 0.05 mg/kg/day): 4 n
- Enterocolitis: Patients (Total, 0.05 mg/kg/day): 3 (16.7) n (%)
- Eye disorder: Events (Total, 0.05 mg/kg/day): 7 n
- Eye disorder: Patients (Total, 0.05 mg/kg/day): 3 (16.7) n (%)
- Gastrointestinal disorders: Events (Total, 0.05 mg/kg/day): 60 n
- Gastrointestinal disorders: Patients (Total, 0.05 mg/kg/day): 15 (83.3) n (%)
- General disorders and administration site conditions: Events (Total, 0.05 mg/kg/day): 37 n
- General disorders and administration site conditions: Patients (Total, 0.05 mg/kg/day): 10 (55.6) n (%)
- Headache: Events (Total, 0.05 mg/kg/day): 14 n
- Headache: Patients (Total, 0.05 mg/kg/day): 7 (38.9) n (%)
- Hematuria: Events (Total, 0.05 mg/kg/day): 3 n
- Hematuria: Patients (Total, 0.05 mg/kg/day): 3 (16.7) n (%)
- Hemorrhage subcutaneous: Events (Total, 0.05 mg/kg/day): 3 n
- Hemorrhage subcutaneous: Patients (Total, 0.05 mg/kg/day): 2 (11.1) n (%)
- Hepatobiliary disorders: Events (Total, 0.05 mg/kg/day): 5 n
- Hepatobiliary disorders: Patients (Total, 0.05 mg/kg/day): 4 (22.2) n (%)
- Hypersensitivity: Events (Total, 0.05 mg/kg/day): 2 n
- Hypersensitivity: Patients (Total, 0.05 mg/kg/day): 2 (11.1) n (%)
- Hypozincemia: Events (Total, 0.05 mg/kg/day): 2 n
- Hypozincemia: Patients (Total, 0.05 mg/kg/day): 2 (11.1) n (%)
